Measurements as given in US20130310256A1, “HERBICIDAL COMPOSITIONS COMPRISING 4-AMINO-3-CHLORO-5-FLUORO-6-(4-CHLORO-2-FLUORO-3-METHOXYPHENYL) PYRIDINE-2-CARBOXYLIC ACID OR A DERIVATIVE THEREOF AND VLCFA AND LIPID SYNTHESIS INHIBITING HERBICIDES” (DOW AGROSCIENCES LLC, priority 2008, published 2013).
Where “and” joins values, the source holds several entries; their conditions need not be identical. Identical values can stand only once.

Experiments:
ECHCG = experiment: Example I: postemergence foliar-applied weed control, greenhouse; type: in vivo, Echinochloa crus-galli (L.) Beauv. (barnyardgrass); details: for Visual Weed Control (%) - 22 DAA ECHCG Obs / Visual Weed Control (%) - 20 DAA ECHCG Obs: foliar
Outline: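 Plants grown in loam/sandy loam–calcareous grit soil (80:20) in greenhouse, 14 hr photoperiod, about 29° C. day/26° C. night, treated postemergence at first to fourth true leaf stage. Foliar spray at 187 L/ha with 1.25% (v/v) crop oil concentrate; Compound A dosed on acid equivalent basis, partners on active ingredient basis.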

POLHP = experiment: Example V: field trial, in-water application to transplanted rice, Niigata, Japan; type: in vivo, Polygonum hydropiperoides; details: 31 DAA, submerged weeds
Description: (§1) Post and pre-emergence field trials were conducted in Niigata, Japan. Trial sites were located in commercially grown fields of transplanted rice (Oryza sativa, variety: Koshihikari) using standard herbicide small plot research methodology. The trial plot size was 2 meters (m)×2 m with 3 replications. The nursery plants were grown in the greenhouse using practical methods and transplanted into the field at the 2.5-leaf stage on May 7, 2012. The row and in-row spaces were 30 cm and 17 cm, respectively. The crop was grown using normal cultural practices for fertilization, water management and maintenance to ensure good growth of the crop and the weeds.
(§2) Treatments consisted of the benzyl ester of 4-amino-3-chloro-5-fluoro-6-(4-chloro-2-fluoro-3-methoxyphenyl)pyridine-2-carboxylic acid (Compound A) formulated as an SC (suspension concentrate) and various herbicidal components alone and in combination. Compound A benzyl ester was applied on an active ingredient basis. […]
(§3) Compound A benzyl ester SC was once diluted in 100 mL water in the 200 mL bottle/plot to achieve the desired rates and applied by water injection. […] Visual weed control was scored on a scale of 0 to 100 percent where 0 corresponds to no injury and 100 corresponds to complete kill. […]

SCPJU [1] = experiment: as above; type: in vivo, Scirpus juncoides; details: 31 DAA, submerged weeds
Description: as §1, §2, §3

SCPJU [2] = experiment: Example I: postemergence foliar-applied weed control, greenhouse; type: in vivo, Schoenoplectus juncoides (Roxb.) Palla (Japanese bulrush)

CCS(=O)(=O)Oc1ccc2c(c1)C(C)(C)CO2 [Benfuresate, 2,3-dihydro-3,3-dimethyl-5-benzofuranyl ethanesulfonate]
Visual Weed Control (%) - 22 DAA ECHCG Obs (ECHCG; 75 gai/ha): 0% | Visual Weed Control (%) - 22 DAA ECHCG Obs (ECHCG; 150 gai/ha): 0% | Visual Weed Control (%) - 22 DAA ECHCG Obs (ECHCG; 300 gai/ha): 0% | Visual Weed Control POLHP Obs (POLHP; 600 gai/ha): 94.3% | Visual Weed Control SCPJU Obs (SCPJU [1]; 600 gai/ha): 64.3%

CCN(CC)C(=O)n1cnc(S(=O)(=O)c2c(C)cc(C)cc2C)n1 [Cafenstrole, N,N-diethyl-3-[(2,4,6-trimethylphenyl)sulfonyl]-1H-1,2,4-triazole-1-carboxamide]
Visual Weed Control (%) - 21 DAA SCPJU Obs (SCPJU [2]; 26.25 gai/ha): 0% | Visual Weed Control (%) - 21 DAA SCPJU Obs (SCPJU [2]; 52.5 gai/ha): 0% | Visual Weed Control (%) - 21 DAA SCPJU Obs (SCPJU [2]; 105 gai/ha): 0% | Visual Weed Control Obs (ECHCG; 20 DAA, 26.25 gai/ha Himeadow WP): 10% | Visual Weed Control Obs (ECHCG; 20 DAA, 52.5 gai/ha Himeadow WP): 15% | Visual Weed Control Obs (ECHCG; 20 DAA, 105 gai/ha Himeadow WP): 15% | Visual Weed Control Obs (ECHCG; 21 DAA, 210 gai/ha Lapost Flowable): 0%

COc1c(Cl)ccc(-c2nc(C(=O)O)c(Cl)c(N)c2F)c1F [Compound A Acid, 4-amino-3-chloro-6-(4-chloro-2-fluoro-3-methoxyphenyl)-5-fluoropyridine-2-carboxylic acid]
Visual Weed Control (%) - 22 DAA ECHCG Obs (ECHCG; 5.3 gae/ha): 65% | Visual Weed Control (%) - 22 DAA ECHCG Obs (ECHCG; 10.6 gae/ha): 55% | Visual Weed Control Obs (ECHCG; 20 DAA, 4.38 gae/ha): 60% and 50% | Visual Weed Control Obs (ECHCG; 21 DAA, 17.5 gae/ha): 88% | Visual Weed Control Obs (ECHCG; 21 DAA, 35 gae/ha): 85%

COc1c(Cl)ccc(-c2nc(C(=O)OCc3ccccc3)c(Cl)c(N)c2F)c1F [Compound A Benzyl Ester, benzyl ester of 4-amino-3-chloro-5-fluoro-6-(4-chloro-2-fluoro-3-methoxy-phenyl)pyridine-2-carboxylic acid]
Visual Weed Control (%) - 21 DAA SCPJU Obs (SCPJU [2]; 4.38 gae/ha): 40% | Visual Weed Control (%) - 22 DAA ECHCG Obs (ECHCG; 5.3 gae/ha): 40% | Visual Weed Control (%) - 20 DAA ECHCG Obs (ECHCG; 8 gae/ha): 63% | Visual Weed Control (%) - 22 DAA ECHCG Obs (ECHCG; 8 gae/ha): 25% | Visual Weed Control (%) - 22 DAA ECHCG Obs (ECHCG; 10.6 gae/ha): 60% | Visual Weed Control (%) - 20 DAA ECHCG Obs (ECHCG; 16 gae/ha): 78% | Visual Weed Control (%) - 22 DAA ECHCG Obs (ECHCG; 16 gae/ha): 50% | Visual Weed Control Obs (ECHCG; 20 DAA, 4.38 gae/ha): 70% | Visual Weed Control Obs (ECHCG; 20 DAA, 8.75 gae/ha): 70% | Visual Weed Control Obs (ECHCG; 20 DAA, 16 gae/ha): 78% | Visual Weed Control Obs (ECHCG; 20 DAA, 32 gae/ha): 83% | Visual Weed Control (%) - 20 DAA ECHCG Obs (ECHCG; 32 gae/ha): 83% | Visual Weed Control (%) - 22 DAA ECHCG Obs (ECHCG; 32 gae/ha): 85% | Visual Weed Control POLHP Obs (POLHP; 100 gai/ha): 68.3% | Visual Weed Control SCPJU Obs (SCPJU [1]; 100 gai/ha): 87.7%

CCCOCCN(C(=O)CCl)c1c(CC)cccc1CC [Pretilachlor, 2-chloro-N-(2,6-diethylphenyl)-N-(2-propoxyethyl)acetamide]
Visual Weed Control Obs (ECHCG; 20 DAA, 37.5 gai/ha): 10% | Visual Weed Control Obs (ECHCG; 20 DAA, 75 gai/ha): 10% | Visual Weed Control Obs (ECHCG; 20 DAA, 150 gai/ha): 0%
